Experimental findings from patent publication US11866502B2, “Anti-FGFR2 antibodies and methods of use thereof” (Regeneron Pharmaceuticals, Inc., priority 2020, dated 2024) are described below.

Structures are written as SMILES.

Common to all, as to format: cell-based, human
In one assay the test system is SNU-16 cells. Description: In vitro cytotoxicity assay (CellTiter-Glo 2.0), SNU-16 cells. The following applies: 6 days. On the procedure:
(§1) To test the ability of anti-FGFR2 antibody drug conjugates (ADCs) disclosed herein to kill human cell lines, an in vitro cytotoxicity assay was performed. In vitro cytotoxicity of the anti-FGFR2 ADCs, isotype control ADCs, and reference free payloads were evaluated using the CellTiter-Glo 2.0 Assay Kit (Promega, Cat #G9243), in which the quantity of ATP present is used to determine the number of viable cells in culture. The payloads Maytansinoid 1A, Maytansinoid 1A* (a cell permeable equivalent of Maytansinoid 1A), and Tubulysin 1A were tested as free payloads, and the unconjugated antibodies, including comparator antibodies, were used as controls.
(§2) Five-fold serial dilutions of anti-FGFR2 ADCs or isotype control ADCs were prepared in dilution media (Optimem+0.1% BSA) and added to cells at final concentrations ranging from 20 nM to 0.051 pM (concentrations were corrected for the DAR and are dosed based on the effective payload concentration). Five-fold serial dilutions of free payloads were prepared in 100% DMSO, transferred to fresh dilution media, and then added to the cells at a final constant DMSO concentration of 0.2% and final payload concentrations ranging from 20 nM to 0.051 pM. The last well in each dilution series served as an untreated control and included media alone or media plus 0.2% DMSO and was plotted as a continuation of the 5-fold serial dilution. Six days later, 100 uL of CellTiter Glo 2.0 was added to each well, plates were mixed for 2 minutes on an orbital shaker, and plates were incubated at room temperature for 10 minutes. Relative light units (RLUs) were measured on an Envision luminometer (Perkin Elmer) and cell viability was expressed as a percentage of the untreated (100% viable) cells. IC50 values were determined using a four-parameter logistic equation over a 10-point dose response curve (GraphPad Prism). The maximum % kill was also determined for each test article as follows: 100−minimum percent viability.

The subject of a further assay is MFM-223 cells. The assay can be described thus: In vitro cytotoxicity assay (CellTiter-Glo 2.0), MFM-223 cells. On the procedure: as §1, §2
On the technique in general: Cellular ATP, detected with luciferase, serves as a proxy for viable cell number.

Assay [1] has as its system SNU-16, MFM-223, NCI-H716, or IM-9 cells. Description: In vitro cytotoxicity assay, several cell lines. The following applies: Homo sapiens; all tested cells; lower end of range, upper end >20 nM; read-out: IC50 values. The method, then: as §1
as §2, with “Five-fold” for “Five-fold serial dilutions of anti-FGFR2 ADCs or isotype control ADCs were prepared in dilution media (Optimem+0.1% BSA) and added to cells at final concentrations ranging from 20 nM to 0.051 pM (concentrations were corrected for the DAR and are dosed based on the effective payload concentration). Five-fold”
A comparator anti-FGFR2 ADC that recognizes both FGFR2b and FGFR2c and is conjugated to an auristatin payload (Comp2-BAY-LP) was also tested for cytotoxicity.

The next assay deals with NCI-H716 cells. Description: In vitro cytotoxicity assay (CellTiter-Glo 2.0), NCI-H716 cells. The following applies: 6 days. The method, then:
as §1, §2

A further assay relates to IM-9 cells. Description: In vitro cytotoxicity assay (CellTiter-Glo 2.0), IM-9 cells. The following applies: 6 days. The method, then:
as §1, §2

As for `CNCCC(=O)N(C)[C@@H](C)C(=O)O[C@H]1CC(=O)N(C)c2cc(cc(OC)c2Cl)C/C(C)=C/C=C/[C@@H](OC)[C@@]2(O)C[C@H](OC(=O)N2)[C@@H](C)[C@@H]2O[C@@]12C` [maytansinoid 1A], the IC50 – broadly, the concentration needed to halve the response being measured – with SNU-16 cells (Homo sapiens, 144 h, SNU-16 (FGFR2b positive), read-out: IC50) is above 20 nM; in the assay on MFM-223 cells (Homo sapiens, MFM-223, 144 h, read-out: IC50) it was above 20 nM; in assay [1], at least 4.63 nM; with NCI-H716 cells (Homo sapiens, 144 h, NCI-H716 (low FGFR2b, high FGFR2c), read-out: IC50), above 20 nM; in the assay on IM-9 cells (Homo sapiens, 144 h, IM-9 (non-FGFR2 expressing), read-out: IC50), above 20 nM. Also, the “Max % Kill” value in the assay with SNU-16 cells (SNU-16, up to 20 nM) is listed as 9.2%; in the assay on MFM-223 cells (MFM-223, 6 days, up to 20 nM), 18.1%; in the assay with NCI-H716 cells (NCI-H716, up to 20 nM), 6.4%; in the assay on IM-9 cells (IM-9, up to 20 nM), 3.7%.
